Assay results published in patent US4782074A (priority 1987, dated 1988).

Assays:
Format in all cases: in vivo
Plasmopara viticola = experiment: Grape Downy Mildew control (Example E); conditions: detached grape leaves, cultivar Emperor, relative to untreated check plants, read-out: % Control GDM
Description: The compounds of the invention were tested for the control of the Grape Downy Mildew organism Plasmopara viticola. Detached leaves, between 70 mm and 85 mm in diameter, 7-week-old Vitis vinifera cultivar Emperor grape seedlings were used as hosts. The leaves were sprayed with a 250-ppm solution of the test compound in acetone. The sprayed leaves were dried, inoculated with a spore suspension of the organism, placed in a humid environmental chamber and incubated at 66° F. to 68° F. and about 100% relative humidity. After incubation for 2 days, the plants were then held in a greenhouse 7 to 9 days; then the amount of disease control was determined. The percent disease control provided by a given test compound was based on the percent disease reduction relative to untreated check plants.

Phytophthora infestans = experiment: whole plant or invertebrate; conditions: in Solanum lycopersicum, 168 h, read-out: % Control TLB
Septoria apii = experiment: whole plant or invertebrate; conditions: 336 h, read-out: % Control CLB
[1] = test system: Alternaria solani conidia; experiment: Tomato Early Blight control (Example D); conditions: 288 h, tomato seedlings, Bonny Best, inoculated 1 day after spray, relative to untreated check plants, read-out: % Control TEB
Description: Compounds of the invention were tested for the control of the Tomato Early Blight organism Alternaria solani conidia. Tomato (variety Bonny Best) seedlings of 6- to 7-weeks old were used. The tomato plants were sprayed with a 250-ppm solution of the test compound in an acetone-and-water solution containing a small amount of a nonionic emulsifier. The sprayed plants were inoculated 1 day later with the organism, placed in the environmental chamber and incubated at 66° F. to 68° F. and 100% relative humidity for 24 hours. Following the incubation, the plants were maintained in a greenhouse for about 12 days. Percent disease control was based on the percent disease development on untreated check plants.

Uromyces phaseoli tipica = experiment: Leaf Rust / Bean Rust control (Example F); conditions: 336 h, pinto bean plants, rated after about 14 days, relative to untreated check plants, read-out: % Control BR
Description: The Leaf Rust test was made using pinto beans. The pathogen was Uromyces phaseoli tipica. The pinto bean plants were sprayed with a 250-ppm solution of the test compound in an acetone-water mixture containing a nonionic emulsifier. The treated plants were inoculated thereafter with the pathogen and then incubated in an environmental chamber for approximately 20 hours at 100% relative humidity and a temperature of 68° F. to 70° F. The plants were then removed from the chamber, allowed to dry, and then maintained in a greenhouse at a 60% to 80% relative humidity. The rate of infection on the leaves was made after about 14 days. The percent disease control provided by a given test compound was based on the percent disease reduction relative to untreated check plants.

Erysiphe polygoni = experiment: Bean Powdery Mildew control (Example A); conditions: 240 h, seedling bean plants, inoculated 1 day after spray, 10 days, relative to untreated check plants, read-out: % Control BPM
Description: The compounds of the invention were tested for the control of the Bean Powdery Mildew organism Erysiphe polygoni. Seedling bean plants were sprayed with a 250-ppm solution of the test compound in acetone, water and a nonionic emusifier. The sprayed plants were then inoculated 1 day later with the organism. The plants were maintained for 10 days at temperatures of 68° F. at night with daytime temperatures of 72° F. to 80° F.; relative humidity was maintained at 40% to 60%. The percent disease control provided by a given test compound was based on the percent disease reduction relative to the untreated check plants.

Piricularia oryzae = experiment: whole plant or invertebrate; conditions: Pyricularia oryzae, read-out: % Control RB

Row | Compound | pest or weed control at 250 ppm (Plasmopara viticola) [%] | pest or weed control at 250 ppm (Phytophthora infestans) [%] | pest or weed control at 250 ppm (Septoria apii) [%] | pest or weed control at 250 ppm [1] [%] | pest or weed control at 250 ppm (Uromyces phaseoli tipica) [%] | pest or weed control at 250 ppm (Erysiphe polygoni) [%] | pest or weed control at 625 ppm (Piricularia oryzae) [%]
1 | CCCN(CCOc1c(Cl)cc(Cl)cc1Cl)C(=O)c1cccnc1 [Compound 1, N-(n-propyl), N-(3-pyridylcarbonyl)ethanolamine 2,4,6-trichlorophenylether] | 50 | 0 | 46 | 96 | 0 | 100 | 86
2 | CCOCCN(CCOc1c(Cl)cc(Cl)cc1Cl)C(=O)c1cccnc1 [Compound 33] | 18 | 0 | 54 | 52 | 0 | 88 | 0
3 | CCCN(CCOc1c(Cl)cc(Cl)cc1Cl)C(=O)c1cncnc1 [Compound 2, N-(n-propyl), N-(5-pyrimidylcarbonyl)ethanolamine 2,4,6-trichlorophenylether] | 3 | 0 | 93 | 98 | 0 | 100 | 38
4 | CCCN(CCOc1ccc(Cl)cc1Cl)C(=O)c1cccnc1 [Compound 8] | 0 | 0 | 45 | 40 | 3 | 50 | 0
5 | CCCN(CCCc1ccc(Cl)cc1Cl)C(=O)c1cccnc1 [Compound 27] | 0 | 0 | 35 | 57 | 3 | 82 | 71
6 | O=C(c1cnccn1)N(CCO)CCOc1c(Cl)cc(Cl)cc1Cl [Compound 31] | 29 | 0 | 0 | 42 | 0 | 0 | 0
7 | CCCN(CCCOc1c(Cl)cc(Cl)cc1Cl)C(=O)c1cccnc1 [Compound 19] | 30 | 10 | 38 | 0 | 0 | 70 | 96
8 | CCN(CCOc1c(Cl)cc(Cl)cc1Cl)C(=O)c1cnccn1 [Compound 36] | 45 | 0 | 50 | 0 | 0 | 75 | 0
9 | CCCN(CCOc1c(Cl)cc(Cl)cc1Cl)C(=O)c1cnccn1 [Compound 3, N-(n-propyl), N-(2-pyrazinylcarbonyl)ethanolamine 2,4,6-trichlorophenylether] | 13 | 0 | 62 | 94 | 19 | 100 | 75
10 | CCOCCN(CCOc1c(Cl)cc(Cl)cc1Cl)C(=O)c1cnccn1 [Compound 34] | 7 | 0 | 15 | 0 | 0 | 0 | 38
11 | CCCN(CCOc1c(C)cc(C)cc1C)C(=O)c1cncnc1 [Compound 16] | 7 | 0 | 38 | 83 | 0 | 50 | 36
